Key:
TGF-β receptor ALK7 = molecular target: T1, TGF-β receptor ALK7 (Homo sapiens, UniProt Q8NER5); conditions: cited from earlier work
T1 sequence (Q8NER5 21-493): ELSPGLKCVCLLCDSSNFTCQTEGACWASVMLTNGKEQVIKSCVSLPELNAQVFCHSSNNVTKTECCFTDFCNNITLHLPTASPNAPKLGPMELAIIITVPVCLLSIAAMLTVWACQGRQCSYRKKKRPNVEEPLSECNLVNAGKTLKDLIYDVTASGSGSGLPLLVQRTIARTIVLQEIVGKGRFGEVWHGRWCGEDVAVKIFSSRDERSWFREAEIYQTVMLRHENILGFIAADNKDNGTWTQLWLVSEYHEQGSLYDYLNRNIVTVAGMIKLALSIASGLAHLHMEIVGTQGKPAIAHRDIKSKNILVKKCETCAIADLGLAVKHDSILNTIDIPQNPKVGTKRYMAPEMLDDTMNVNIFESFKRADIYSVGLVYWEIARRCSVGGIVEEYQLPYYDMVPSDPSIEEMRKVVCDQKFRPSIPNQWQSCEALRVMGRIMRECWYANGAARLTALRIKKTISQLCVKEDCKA

TGF-β receptor ALK4 = molecular target: T2, TGF-β receptor ALK4 (Homo sapiens, UniProt P36896); conditions: cited from earlier work
T2 sequence (P36896 24-505): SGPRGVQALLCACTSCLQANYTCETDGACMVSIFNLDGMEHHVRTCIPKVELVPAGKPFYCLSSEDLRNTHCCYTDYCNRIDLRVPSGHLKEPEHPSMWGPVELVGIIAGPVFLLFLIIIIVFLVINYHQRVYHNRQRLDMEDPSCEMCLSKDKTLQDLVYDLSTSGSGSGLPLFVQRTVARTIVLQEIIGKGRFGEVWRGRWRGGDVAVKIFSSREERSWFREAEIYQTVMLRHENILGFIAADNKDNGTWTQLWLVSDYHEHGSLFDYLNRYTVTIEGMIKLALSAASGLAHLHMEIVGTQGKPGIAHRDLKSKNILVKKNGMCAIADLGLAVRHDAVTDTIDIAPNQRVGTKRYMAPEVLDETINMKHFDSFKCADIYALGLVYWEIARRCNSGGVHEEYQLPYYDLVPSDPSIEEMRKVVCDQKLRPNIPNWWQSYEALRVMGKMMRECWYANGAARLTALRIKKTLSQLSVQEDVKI

TGF-β receptor ALK5 = molecular target: T3, TGF-β receptor ALK5 (Homo sapiens, UniProt P36897); conditions: cited from earlier work
T3 sequence (P36897 34-503): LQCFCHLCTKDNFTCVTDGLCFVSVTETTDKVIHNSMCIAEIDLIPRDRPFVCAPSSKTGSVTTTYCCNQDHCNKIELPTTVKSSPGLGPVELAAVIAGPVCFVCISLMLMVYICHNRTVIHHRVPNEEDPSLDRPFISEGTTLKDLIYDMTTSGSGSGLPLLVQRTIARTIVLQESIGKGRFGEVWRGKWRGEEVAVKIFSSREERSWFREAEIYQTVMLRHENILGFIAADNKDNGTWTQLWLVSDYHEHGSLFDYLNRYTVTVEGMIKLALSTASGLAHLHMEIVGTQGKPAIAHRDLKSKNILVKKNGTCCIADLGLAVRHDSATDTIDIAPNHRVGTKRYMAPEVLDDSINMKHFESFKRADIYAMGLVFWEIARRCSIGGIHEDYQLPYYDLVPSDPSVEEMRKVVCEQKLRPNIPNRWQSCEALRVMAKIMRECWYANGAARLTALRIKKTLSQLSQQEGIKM

mucin 2 = assay: Detection of mucin 2 mRNA (real-time RT-PCR) in human iPS cell-derived intestinal epithelial cells; format: cell-based
Description: (§1) iPS cells were allowed to differentiate into intestinal stem cells, which were then subcultured once. Thereafter, the cells were subjected to a maintenance culture according to the culture method of intestinal stem cells, which had been established in the above-described studies, and were then allowed to differentiate into intestinal epithelial cells.
(§2) After the differentiated intestinal epithelial cells had been recovered, RNA was extracted using Agencourt (registered trademark) RNAdvance™ Tissue Kit, in accordance with the instruction manual included therewith.
(§3) Complementary DNA (cDNA) was synthesized using ReverTra Ace (registered trademark) qPCR RT Master Mix, in accordance with the instruction manual included therewith.
(§4) Real-Time RT-PCR was carried out on cDNA used as a template, using KAPA SYBR Fast qPCR Kit, in accordance with the instruction manual included therewith.

chromogranin A (CgA) = assay: Detection of CgA mRNA (real-time RT-PCR) in human iPS cell-derived intestinal epithelial cells; format: cell-based
Description: as §1, §2, §3, §4

[1] = 100 μM or 200 μM rebamipide together with 200 μM indomethacin, 6 days

Compound | inhibitory activity against TGF-β receptor ALK7 (TGF-β receptor ALK7) | inhibitory activity against TGF-β receptor ALK4 (TGF-β receptor ALK4) | inhibitory activity against TGF-β receptor ALK5 (TGF-β receptor ALK5) | expression level of mucin 2 (mRNA expression level) (mucin 2; 50 μM, 100 μM and 200 μM added to the medium for 6 days, versus control (Con)) | decrease in the expression of mucin 2 (mRNA expression level) caused by indomethacin (mucin 2; [1]) | cytotoxicity (mucin 2; 200 μM added to the medium (R200)) | increase in the expression level of CgA (mRNA expression level) (chromogranin A (CgA); 50 μM, 100 μM and 200 μM added to the medium for 6 days) | decrease in the expression level of CgA (mRNA expression level) caused by indomethacin (chromogranin A (CgA); [1])
Cc1cccc(-c2nn(C(=S)Nc3ccccc3)cc2-c2ccnc3ccccc23)n1 [A-83-01] | exhibited inhibitory activity | exhibited inhibitory activity | exhibited inhibitory activity |  |  |  |  | 
O=C(NC(Cc1cc(=O)[nH]c2ccccc12)C(=O)O)c1ccc(Cl)cc1 (centres unmarked) [rebamipide] |  |  |  | increased | tended to be suppressed | likely to cause cytotoxicity | not particularly observed | tended to be suppressed

Reference: US11725189B2, “Maintenance culture of induced pluripotent stem cell-derived intestinal stem cells” (PUBLIC UNIVERSITY CORPORATION NAGOYA CITY UNIVERSITY, priority 2017, dated 2023)
